Results published in ChEMBL document CHEMBL3885881, “DrugMatrix”.

Species on record: Rattus norvegicus
Experiment: DrugMatrix - Regimen: Daily Repeat
Assay type: toxicity, organism-based, Sprague-Dawley
Parameters: regimen Daily Repeat, gender Male, age 6-8 weeks
Conditions: in vivo, po, route oral GAVAGE, vehicle .5 % CMC; for ABSOLUTE BASOPHIL / ABSOLUTE EOSINOPHIL / ABSOLUTE LYMPHOCYTE / ABSOLUTE MONOCYTE / ABSOLUTE SEGMENTED NEUTROPHIL / BASOPHIL / EOSINOPHIL / ERYTHROCYTE COUNT / HEMATOCRIT / HEMOGLOBIN / LEUKOCYTE COUNT / LYMPHOCYTE / MEAN CORPUSCULAR HEMOGLOBIN / MEAN CORPUSCULAR HEMOGLOBIN CONCENTRATION / MEAN CORPUSCULAR VOLUME / MONOCYTE / NEUTROPHIL / NUCLEATED RED BLOOD CELLS / PLATELET COUNT: tissue Blood; for ALANINE AMINOTRANSFERASE / ALBUMIN / ALKALINE PHOSPHATASE / ASPARTATE AMINOTRANSFERASE / BLOOD UREA NITROGEN / CARBON DIOXIDE / CHLORIDE / CHOLESTEROL / CREATINE PHOSPHOKINASE / CREATININE / GLUCOSE / LACTATE DEHYDROGENASE / LIPASE / PHOSPHORUS / POTASSIUM / SODIUM / TOTAL BILIRUBIN / TOTAL PROTEIN / URIC ACID: tissue Plasma
[1] = 0 mg/kg, 72 h, dose level Control, time 3 day
[2] = 0 mg/kg, 120 h, dose level Control, time 5 day
[3] = 10 mg/kg, 72 h, dose level Low, time 3 day

CC(C)(C#N)c1cc(Cn2cncn2)cc(C(C)(C)C#N)c1 [ANASTROZOLE]
ABSOLUTE BASOPHIL [1]: 0 CELLS/uL
ABSOLUTE EOSINOPHIL [1]: 0 CELLS/uL
ABSOLUTE LYMPHOCYTE [1]: 10913.67 CELLS/uL
ABSOLUTE MONOCYTE [1]: 85.33 CELLS/uL
ABSOLUTE SEGMENTED NEUTROPHIL [1]: 1401 CELLS/uL
BASOPHIL [1]: 0%
EOSINOPHIL [1]: 0%
ERYTHROCYTE COUNT [1]: 5.57 x10E6/uL
HEMATOCRIT [1]: 35.58%
HEMOGLOBIN [1]: 13.8 G/DL
LEUKOCYTE COUNT [1]: 12.4 x10E3/uL
LYMPHOCYTE [1]: 88%
MEAN CORPUSCULAR HEMOGLOBIN [1]: 24.78 pg
MEAN CORPUSCULAR HEMOGLOBIN CONCENTRATION [1]: 38.82 G/DL
MEAN CORPUSCULAR VOLUME [1]: 63.88 fL
MONOCYTE [1]: 0.67%
NEUTROPHIL [1]: 11.33%
NUCLEATED RED BLOOD CELLS [1]: 0 /100WBC
PLATELET COUNT [1]: 1162.33 x10E3/uL
ALANINE AMINOTRANSFERASE [1]: 53 u/L
ALBUMIN [1]: 4.17 G/DL
ALKALINE PHOSPHATASE [1]: 374.5 u/L
ASPARTATE AMINOTRANSFERASE [1]: 89.5 u/L
BLOOD UREA NITROGEN [1]: 16.33 mg/dL
CARBON DIOXIDE [1]: 29.17 mmol/L
CHLORIDE [1]: 97.67 MEQ/L
CHOLESTEROL [1]: 77 mg/dL
CREATINE PHOSPHOKINASE [1]: 464.83 u/L
CREATININE [1]: 0.14 mg/dL
GLUCOSE [1]: 164 mg/dL
LACTATE DEHYDROGENASE [1]: 155.5 u/L
LIPASE [1]: 9.17 u/L
PHOSPHORUS [1]: 12.4 mg/dL
POTASSIUM [1]: 6.91 MEQ/L
SODIUM [1]: 141.47 MEQ/L
TOTAL BILIRUBIN [1]: 0.2 mg/dL
TOTAL PROTEIN [1]: 5.95 G/DL
URIC ACID [1]: 1.72 mg/dL
ABSOLUTE BASOPHIL [2]: 0 CELLS/uL
ABSOLUTE EOSINOPHIL [2]: 20.5 CELLS/uL
ABSOLUTE LYMPHOCYTE [2]: 13871.67 CELLS/uL
ABSOLUTE MONOCYTE [2]: 60.5 CELLS/uL
ABSOLUTE SEGMENTED NEUTROPHIL [2]: 980.67 CELLS/uL
BASOPHIL [2]: 0%
EOSINOPHIL [2]: 0.17%
ERYTHROCYTE COUNT [2]: 5.65 x10E6/uL
HEMATOCRIT [2]: 35.63%
HEMOGLOBIN [2]: 14.08 G/DL
LEUKOCYTE COUNT [2]: 14.93 x10E3/uL
LYMPHOCYTE [2]: 92.83%
MEAN CORPUSCULAR HEMOGLOBIN [2]: 24.97 pg
MEAN CORPUSCULAR HEMOGLOBIN CONCENTRATION [2]: 39.55 G/DL
MEAN CORPUSCULAR VOLUME [2]: 63.13 fL
MONOCYTE [2]: 0.33%
NEUTROPHIL [2]: 6.67%
NUCLEATED RED BLOOD CELLS [2]: 0 /100WBC
PLATELET COUNT [2]: 1248.17 x10E3/uL
ALANINE AMINOTRANSFERASE [2]: 45.17 u/L
ALBUMIN [2]: 4.27 G/DL
ALKALINE PHOSPHATASE [2]: 405.67 u/L
ASPARTATE AMINOTRANSFERASE [2]: 74.17 u/L
BLOOD UREA NITROGEN [2]: 15.5 mg/dL
CARBON DIOXIDE [2]: 30.17 mmol/L
CHLORIDE [2]: 100.67 MEQ/L
CHOLESTEROL [2]: 57 mg/dL
CREATINE PHOSPHOKINASE [2]: 239.5 u/L
CREATININE [2]: 0.17 mg/dL
GLUCOSE [2]: 165.67 mg/dL
LACTATE DEHYDROGENASE [2]: 90.5 u/L
LIPASE [2]: 8.83 u/L
PHOSPHORUS [2]: 12.32 mg/dL
POTASSIUM [2]: 7.03 MEQ/L
SODIUM [2]: 142.65 MEQ/L
TOTAL BILIRUBIN [2]: 0.18 mg/dL
TOTAL PROTEIN [2]: 6.03 G/DL
URIC ACID [2]: 1.98 mg/dL
ABSOLUTE BASOPHIL [3]: 0 CELLS/uL
ABSOLUTE EOSINOPHIL [3]: 62 CELLS/uL
ABSOLUTE LYMPHOCYTE [3]: 13335.67 CELLS/uL
ABSOLUTE MONOCYTE [3]: 144.33 CELLS/uL
ABSOLUTE SEGMENTED NEUTROPHIL [3]: 2091.33 CELLS/uL
BASOPHIL [3]: 0%
EOSINOPHIL [3]: 0.33%
ERYTHROCYTE COUNT [3]: 5.84 x10E6/uL
HEMATOCRIT [3]: 36.23%
HEMOGLOBIN [3]: 14.47 G/DL
LEUKOCYTE COUNT [3]: 15.63 x10E3/uL
LYMPHOCYTE [3]: 85%
MEAN CORPUSCULAR HEMOGLOBIN [3]: 24.77 pg
MEAN CORPUSCULAR HEMOGLOBIN CONCENTRATION [3]: 39.93 G/DL
MEAN CORPUSCULAR VOLUME [3]: 62 fL
MONOCYTE [3]: 1%
NEUTROPHIL [3]: 13.67%
NUCLEATED RED BLOOD CELLS [3]: 0 /100WBC
PLATELET COUNT [3]: 1170.33 x10E3/uL
ALANINE AMINOTRANSFERASE [3]: 55.67 u/L
ALBUMIN [3]: 4.13 G/DL
ALKALINE PHOSPHATASE [3]: 405 u/L
ASPARTATE AMINOTRANSFERASE [3]: 89.67 u/L
BLOOD UREA NITROGEN [3]: 18.67 mg/dL
CARBON DIOXIDE [3]: 29 mmol/L
CHLORIDE [3]: 97 MEQ/L
CHOLESTEROL [3]: 77 mg/dL
CREATINE PHOSPHOKINASE [3]: 289.33 u/L
CREATININE [3]: 0.1 mg/dL
GLUCOSE [3]: 149.33 mg/dL
LACTATE DEHYDROGENASE [3]: 219.33 u/L
LIPASE [3]: 9.33 u/L
PHOSPHORUS [3]: 13.03 mg/dL
POTASSIUM [3]: 6.88 MEQ/L
SODIUM [3]: 142.57 MEQ/L
TOTAL BILIRUBIN [3]: 0.27 mg/dL
TOTAL PROTEIN [3]: 5.8 G/DL
